Test system: M. gallisepticum (MG) field-isolated strain T
Test: In vivo test on chickens inoculated with M. gallisepticum in right air sacs
Conditions: oral, 5 chickens tested, autopsy 7th day

SMILES | No. of lesions of right air sacs: -- (1 × 50 mg/kg) | No. of lesions of right air sacs: Moderate to severe (1 × 50 mg/kg) | No. of lesions of right air sacs: Slight (1 × 50 mg/kg) | No. of lesions of right air sacs: -- (1 × 100 mg/kg) | No. of lesions of right air sacs: Moderate to severe (1 × 100 mg/kg) | No. of lesions of right air sacs: Slight (1 × 100 mg/kg) | No. of lesions of right air sacs: -- (1 × 200 mg/kg) | No. of lesions of right air sacs: Moderate to severe (1 × 200 mg/kg) | No. of lesions of right air sacs: Slight (1 × 200 mg/kg)
CN(C)[C@@H]1C(O)=C(C(N)=O)C(=O)[C@@]2(O)C(O)=C3C(=O)c4c(O)ccc(Cl)c4[C@@](C)(O)[C@H]3C[C@@H]12 [CTC, Chlortetracycline] | 1 | 3 | 1 | 2 | 2 | 1 | – | – | –
CC[C@H]1OC(=O)C[C@@H](O)[C@H](C)[C@@H](O[C@@H]2O[C@H](C)[C@@H](O[C@H]3C[C@@](C)(O)[C@@H](O)[C@H](C)O3)[C@H](N(C)C)[C@H]2O)[C@@H](CC=O)C[C@@H](C)C(=O)/C=C/C(C)=C/[C@@H]1CO[C@@H]1O[C@H](C)[C@@H](O)[C@@H](OC)[C@H]1OC [TS, Tylosin] | – | – | – | 1 | 4 | 0 | 0 | 2 | 3
